Here are results for ten compounds from patent publication US20220324835A1 (Nurix Therapeutics, Inc., priority 2018, published 2022).

For orientation: Kd means the equilibrium constant for the complex coming apart. Read a high Kd as lower affinity. By IC50 is commonly meant the point on the concentration scale where inhibition reaches its midpoint.

One experiment addresses Cbl-b (residues 36-427) (Homo sapiens, UniProt Q13191). Briefly: Cbl-b binding assay (SPR, Biacore T200). Particulars: 20° C., 1:1 binding model. In a few lines:
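NeutrAvidin capture chip, 20° C; 50 s injections at 50 μl/min, 90-180 s dissociation; 0.3 M NaCl regeneration. Asterisked column: 50 mM NaCl buffer and 30 nM Src kinase in place of 100 mM NaCl and 60 nM Src kinase. 1:1 fit.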

The subject of a further experiment is anergic human T-cells. Briefly: Anergic T-cell activation assessed by IFNγ secretion (ionomycin-induced anergy). The class given is cell-based. Particulars: anergic T-cells re-challenged with anti-CD3 and anti-CD28 for 24 hours, read-out: IFNγ Fold change from baseline. The text has this: Peripheral blood mononuclear cells (PBMC) were obtained either: 1) by using Ficoll-Paque™ (GE Healthcare) for separation of peripheral blood hematopoietic cells from buffy coats of healthy human donors; or 2) directly from LeukoPak donations. Total human primary T-cells were isolated from the PBMCs utilizing negative selection with commercial kits following the manufacturer's protocol (Miltenyi Catalog #130-096-535 (i.e., cocktail of antibodies against surface markers CD14, CD15, CD16, CD19, CD34, CD36, CD56, CD123 and CD235a were incubated with the PBMCs before passing the samples by magnetic beads for removal of cells expressing those surface markers) or StemCells Catalog #17951) to yield >95% CD3+ cells assessed by flow cytometry. The cells were activated with immobilized anti-CD3 antibody (OKT3) and soluble anti-CD28 antibody (28.2) for two days at which time they are washed and allowed to rest for three days in the absence of stimulation. They were then treated with ionomycin (Sigma) for 18-24 hours to induce anergy. Following two washes to remove the ionomycin from the samples, Cbl-b inhibitor compounds were added to the cells at the indicated concentrations (e.g. 10, 1.11 and 0.37 μM) and incubated for 1 hour. The cells were then re-challenged with anti-CD3 antibody and anti-CD28 antibody for 24 hours at which point cell free supernatants were collected and assessed for cytokines (e.g., IFNγ) by ELISA (R&D Systems or Peprotech) or Luminex multiplex kits (Procarta Life Technologies) following manufacturer's protocols.
Cbl-b inhibitors were tested to determine their ability to induce or enhance secretion of cytokines from anergic T-cells (e.g. IFNγ), which is indicative of decreased T-cell tolerance.
Readouts were reported as fold change over baseline. Baseline for this study was the measurement obtained from anergic human T-cells stimulated with immobilized anti-CD3 and soluble anti-CD28, wherein the T-cells were not incubated with a Cbl-b inhibitor (Table 7). For IFNγ changes greater than 2.5-fold over baseline were considered a positive response (Table 7). Compounds were ranked into bins according to their readout as follows for IFNγ: A indicates ≤2.50, B indicates 2.51-4.00 and C indicates >4.01.

A further experiment addresses Cbl-b (Homo sapiens, UniProt Q13191). Nature of the experiment: Cbl-b activity assay (Cbl-b inhibition assay), TR-FRET of Cbl-b interaction with UbcH5B-Ub. As to conditions: assay buffer with 100 mM NaCl, 60 nM Src kinase; read-out: Cbl-b activity IC50. In kind it is biochemical. In a few lines:
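Compound-treated Cbl-b was incubated 1.5 h with Src kinase (60 nM final; 30 nM for asterisked values, which also used 50 mM instead of 100 mM NaCl), 1 mM ATP and 5 mM MgCl2. Binding to fluorescent Ub-loaded UbcH5B (C85K mutant) was then read by TR-FRET after 1 h more.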
In general terms: TR-FRET usually uses a lanthanide donor and a delayed reading to cut background.

Experiment [1] has as its system human T-cells with allogenic immature dendritic cells. Nature of the experiment: Allogenic mixed lymphocyte reaction (MLR), T-cell proliferation. The class given is cell-based. As to conditions: 120 h, 5 days, baseline T-cells without Cbl-b inhibitor, read-out: Proliferation, fold change over baseline. The protocol:
Cbl-b inhibitor effects on primary human T-cells were also evaluated in the context of an allogenic mixed lymphocyte reaction (MLR). Allogenic immature dendritic cells were generated under the following conditions. Peripheral blood mononuclear cells (PBMC) were obtained either: 1) by using Ficoll-Paque™ (GE Healthcare) for separation of peripheral blood hematopoietic cells from huffy coats of healthy human donors; or 2) directly from LeukoPak donations. […] Monocytes were cultured with 30 ng/mL of recombinant human GM-CSF and 20 ng/mL of recombinant human IL-4 for seven days to generate immature dendritic cells. Monocytes and T-cells were either isolated fresh from peripheral blood or thawed from frozen stocks. Human T-cells were isolated, labeled with CFSE and incubated with inhibitors as described above. […] Proliferation of the T-cells was evaluated by flow cytometry.
Readouts for the allogenic mixed lymphocyte reaction were reported as fold change over baseline. Baseline for this study was the measurement obtained from total human T-cells stimulated with allogenic immature dendritic cells, wherein the T-cells were not incubated with a Cbl-b inhibitor (Table 5). Increases in proliferation greater than 2-fold over baseline were considered a positive response (Table 5).

The subject of the next experiment is T-cell. Nature of the experiment: IL-2 secretion from T-cells stimulated with anti-CD3 antibody alone (Biological Example 2). In kind it is cell-based. As to conditions: primary human total T-cells, read-out: IL-2 secretion, Anti-CD3 stimulation, fold change over baseline; for fold induction at 1 µM: 1 μM compound; for fold induction at 8 µM: 8 μM compound.

Cbl-b, sequence (Q13191 36-427): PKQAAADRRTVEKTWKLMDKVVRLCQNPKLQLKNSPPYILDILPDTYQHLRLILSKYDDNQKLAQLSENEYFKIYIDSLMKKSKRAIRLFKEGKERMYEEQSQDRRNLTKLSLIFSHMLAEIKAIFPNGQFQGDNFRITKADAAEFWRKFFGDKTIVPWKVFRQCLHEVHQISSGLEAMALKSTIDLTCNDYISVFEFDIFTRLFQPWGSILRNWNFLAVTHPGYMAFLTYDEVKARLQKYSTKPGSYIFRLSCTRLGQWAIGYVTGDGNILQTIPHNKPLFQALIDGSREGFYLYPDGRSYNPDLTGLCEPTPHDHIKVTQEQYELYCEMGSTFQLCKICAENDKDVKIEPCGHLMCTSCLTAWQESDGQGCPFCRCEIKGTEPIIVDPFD
Cbl-b (residues 36-427), sequence (Q13191 36-427): as above

With `Cn1cnnc1CC1(c2cccc(NC(=O)c3nc4c(C(F)(F)F)cccc4[nH]3)c2)COC1` [Compound 335, N-(3-{3-[(4-methyl-1,2,4-triazol-3-yl)methyl]oxetan-3-yl}phenyl)-4-(trifluoromethyl)-1H-1,3-benzodiazole-2-carboxamide], the Kd on Cbl-b (residues 36-427) was under 100 nM. In the experiment with anergic human T-cells, the fold induction at 0.37 µM is at most 2.5, the fold induction at 1.11 µM is 2.51 to 4 and the fold induction at 10 µM is over 4.01. Besides, on Cbl-b, the half-maximal inhibitory concentration (IC50) is under 100 nM. In experiment [1], the fold induction at 3 µM is under 2 and the fold induction at 10 µM was under 2.
On to `Cc1cc(C(=O)Nc2cccc(C3(Cc4nncn4C)COC3)c2)nc(C2CC2)n1` [Compound 336, 2-cyclopropyl-6-methyl-N-(3-(3-((4-methyl-4H-1,2,4-triazol-3-yl)methyl)oxetan-3-yl)phenyl)pyrimidine-4-carboxamide], for which the Kd at Cbl-b (residues 36-427) is under 100 nM. Besides, in the experiment with anergic human T-cells, the fold induction at 0.37 µM was 2.51 to 4, the fold induction at 1.11 µM is 2.51 to 4 and the fold induction at 10 µM is over 4.01. Further, the IC50 at Cbl-b was under 100 nM. For the same compound, in experiment [1], the fold induction at 3 µM is under 2 and the fold induction at 10 µM was over 3.01.
For `C[C@@H](c1cc2c(c(C(F)(F)F)c1)CN(c1cccc(C3(Cc4nncn4C)COC3)c1)C2=O)N1CC[C@H](F)C1` [Compound 412, 6-((S)-1-((S)-3-fluoropyrrolidin-1-yl)ethyl)-2-(3-(3-((4-methyl-4H-1,2,4-triazol-3-yl)methyl)oxetan-3-yl)phenyl)-4-(trifluoromethyl)isoindolin-1-one], in the experiment with anergic human T-cells, the fold induction at 0.37 µM is at most 2.5, the fold induction at 1.11 µM is over 4.01 and the fold induction at 10 µM is over 4.01. Also, on Cbl-b, the IC50 was under 100 nM. Besides, in experiment [1], the fold induction at 3 µM is over 3.01 and the fold induction at 10 µM is over 3.01. Also, in the experiment with T-cell, the fold induction at 1 µM is over 0.201 and the fold induction at 8 µM is over 0.201.
In the case of `C[C@H](c1cc2c(c(C(F)(F)F)c1)CN(c1cccc(C3(Cc4nncn4C)COC3)c1)C2=O)N1CC[C@H](F)C1` [Compound 413, 6-((R)-1-((S)-3-fluoropyrrolidin-1-yl)ethyl)-2-(3-(3-((4-methyl-4H-1,2,4-triazol-3-yl)methyl)oxetan-3-yl)phenyl)-4-(trifluoromethyl)isoindolin-1-one], in the experiment on anergic human T-cells, the fold induction at 0.37 µM is 2.51 to 4, the fold induction at 1.11 µM was over 4.01 and the fold induction at 10 µM is over 4.01. Moreover, the IC50 on Cbl-b was under 100 nM. In experiment [1], the fold induction at 3 µM lay within 2.01 to 3 and the fold induction at 10 µM was over 3.01. In addition, in the experiment on T-cell, the fold induction at 1 µM is over 0.201 and the fold induction at 8 µM is over 0.201.
`Cn1cnnc1CC1(c2cccc(N3Cc4c(cc(CN5CC(F)C5)cc4C(F)(F)F)C3=O)c2)COC1` [Compound 415, 6-((3-fluoroazetidin-1-yl)methyl)-2-(3-(3-((4-methyl-4H-1,2,4-triazol-3-yl)methyl)oxetan-3-yl)phenyl)-4-(trifluoromethyl)isoindolin-1-one]: in the experiment on anergic human T-cells, the fold induction at 0.37 µM lay in the range of 2.51 to 4, the fold induction at 1.11 µM is 2.51 to 4 and the fold induction at 10 µM was over 4.01. Further, the IC50 on Cbl-b is under 100 nM. Also, in experiment [1], the fold induction at 3 µM fell in the range of 2.01 to 3 and the fold induction at 10 µM was over 3.01. Besides, in the experiment on T-cell, the fold induction at 1 µM fell in the range of 0.151 to 0.2 and the fold induction at 8 µM was over 0.201.
For the compound `Cn1cnnc1CC1(c2cccc(N3Cc4c(cc(CN5CC[C@H](C#N)C5)cc4C(F)(F)F)C3=O)c2)COC1` [Compound 422, (S)-1-((2-(3-(3-((4-methyl-4H-1,2,4-triazol-3-yl)methyl)oxetan-3-yl)phenyl)-3-oxo-7-(trifluoromethyl)isoindolin-5-yl)methyl)pyrrolidine-3-carbonitrile], in the experiment with anergic human T-cells, the fold induction at 0.37 µM is at most 2.5, the fold induction at 1.11 µM fell in the range of 2.51 to 4 and the fold induction at 10 µM lay in the range of 2.51 to 4. For the same compound, the IC50 on Cbl-b was under 100 nM. Also, in experiment [1], the fold induction at 3 µM is under 2 and the fold induction at 10 µM was in the range of 2.01 to 3. Moreover, in the experiment with T-cell, the fold induction at 1 µM was over 0.201 and the fold induction at 8 µM is over 0.201.
Consider `Cn1cnnc1C(F)(F)[C@](C)(F)c1cccc(N2Cc3c(cc(N4CCNCC4)cc3C(F)(F)F)C2=O)c1` [Compound 442, (R)-6-(Piperazin-1-yl)-2-(3-(1,1,2-trifluoro-1-(4-methyl-4H-1,2,4-triazol-3-yl)propan-2-yl)phenyl)-4-(trifluoromethyl)isoindolin-1-one], for which, in the experiment with anergic human T-cells, the fold induction at 0.37 µM is at most 2.5, the fold induction at 1.11 µM is 2.51 to 4 and the fold induction at 10 µM was in the range of 2.51 to 4. Besides, the IC50 on Cbl-b is under 100 nM. Further, in experiment [1], the fold induction at 3 µM is under 2 and the fold induction at 10 µM was under 2. Moreover, in the experiment with T-cell, the fold induction at 1 µM was over 0.201 and the fold induction at 8 µM fell in the range of 0.051 to 0.1.
For `Cn1cnnc1C(F)(F)[C@](C)(F)c1cccc(N2Cc3c(cc(CN4CC[C@@H](C#N)C4)cc3C(F)(F)F)C2=O)c1` [Compound 455, (R)-1-((3-oxo-2-(3-((R)-1,1,2-trifluoro-1-(4-methyl-4H-1,2,4-triazol-3-yl)propan-2-yl)phenyl)-7-(trifluoromethyl)isoindolin-5-yl)methyl)pyrrolidine-3-carbonitrile], in the experiment with anergic human T-cells, the fold induction at 0.37 µM was at most 2.5, the fold induction at 1.11 µM was in the range of 2.51 to 4 and the fold induction at 10 µM was over 4.01. Also, at Cbl-b, the IC50 is under 100 nM. In experiment [1], the fold induction at 3 µM was under 2 and the fold induction at 10 µM is under 2. In addition, in the experiment on T-cell, the fold induction at 1 µM lay in the range of 0.151 to 0.2 and the fold induction at 8 µM was over 0.201.
In the case of `Cn1cnnc1CC1(c2cccc(NC(=O)c3cc(CN4CCC5(CC5)C4)cc(C4CC4)n3)c2)COC1` [Compound 519, 4-((5-azaspiro[2.4]heptan-5-yl)methyl)-6-cyclopropyl-N-(3-(3-((4-methyl-4H-1,2,4-triazol-3-yl)methyl)oxetan-3-yl)phenyl)picolinamide], in the experiment with anergic human T-cells, the fold induction at 0.37 µM is over 4.01, the fold induction at 1.11 µM is over 4.01 and the fold induction at 10 µM was over 4.01. Besides, the IC50 on Cbl-b was under 100 nM. For the same compound, in experiment [1], the fold induction at 3 µM was over 3.01 and the fold induction at 10 µM was over 3.01. Also, the fold induction at 1 µM in the experiment with T-cell was over 0.201.
As for `Cn1cnnc1CC1(c2cccc(N3Cc4c(cc(CN5CCC6(CC6)C5)cc4C(F)(F)F)C3=O)c2)COC1` [Compound 520, 6-((5-azaspiro[2.4]heptan-5-yl)methyl)-2-(3-(3-((4-methyl-4H-1,2,4-triazol-3-yl)methyl)oxetan-3-yl)phenyl)-4-(trifluoromethyl)isoindolin-1-one], in the experiment on anergic human T-cells, the fold induction at 0.37 µM is at most 2.5, the fold induction at 1.11 µM fell in the range of 2.51 to 4 and the fold induction at 10 µM is over 4.01. Further, the IC50 on Cbl-b was under 100 nM. Also, in experiment [1], the fold induction at 3 µM is over 3.01 and the fold induction at 10 µM is over 3.01. The fold induction at 1 µM in the experiment on T-cell was over 0.201.
